This note sets out measurements from the RepoRT retention time repository (doi:10.1016/j.jhazmat.2019.121712).

The structures appear in SMILES notation.

A short description of this data set: Thermo Scientific Acclaim RSLC 120 C18, 100 × 2.1 mm, 2.2 µm, 30 °C; A: 90% water + 10% methanol + 0.01% formic acid + 5 mM ammonium formate; B: methanol + 0.01% formic acid + 5 mM ammonium formate; gradient (min/%B) 0.1/1 3/39 14/99.9 16/99.9. To be noted: stereoisomer not certain.
For the compound `CC(Cc1ccc(O)cc1)NCC(O)c1cc(O)cc(O)c1` (stereo unspecified), the LC retention time was determined as 3.61 min.

`CCC(=O)C1(c2cccc(O)c2)CCN(C)CC1`: the LC retention time came to 4.26 min.

For the compound `CC1COC(=O)c2cc3c(cc21)C(C)(C)C(C)C3(C)C` (stereo unspecified), the LC retention time worked out at 12 min.

As for `N=c1nc(N2CCCCC2)cc(N)n1O`, the LC retention time was 4.88 min.

On to `CC(C)C(N)C(=O)OCC(CO)OCn1cnc2c(=O)[nH]c(N)nc21` (stereo unspecified), for which the LC retention time was 2.71 min.

As for `COC(=O)CCc1ccc(OCC(O)CNC(C)C)cc1` (stereo unspecified), the LC retention time turned out to be 5.18 min.

For `NC(=O)c1ccccc1O`, the LC retention time turned out to be 4.76 min.

Turning to `CNC(C)C(=O)c1ccc(OC)cc1` (stereo unspecified), the LC retention time came to 4.16 min.

Turning to `c1ccc2n[nH]nc2c1`, the LC retention time was determined as 4.76 min.

Turning to `COC(=O)c1ccccc1CS(=O)(=O)NC(=O)Nc1nc(OC)cc(OC)n1`, the LC retention time came out at 8.77 min.

On to `COc1cnc(NS(=O)(=O)c2ccc(N)cc2)nc1`, for which the LC retention time is 4.18 min.

On to `C=CC=CCC1=C(C)C(OC(=O)C2C(C=C(C)C(=O)OC)C2(C)C)CC1=O` (stereo unspecified), for which the LC retention time was determined as 11.7 min.

Consider `CNCCC(Oc1cccc2ccccc12)c1cccs1` (stereo unspecified), for which the LC retention time worked out at 8.11 min.

Regarding `COP(=S)(OC)Oc1ccc(S(C)=O)c(C)c1` (stereo unspecified), the LC retention time turned out to be 7.28 min.

Take `CC(CS)C(=O)N1CCCC1C(=O)O` (stereo unspecified): the LC retention time was 4.59 min.

As to `CNCC1CCCCC1(O)c1cccc(OC)c1` (stereo unspecified), the LC retention time was determined as 5.3 min.

On to `COC=C(C(=O)O)c1ccccc1Oc1cc(Oc2ccccc2C#N)ncn1`, for which the LC retention time was 8.18 min.

As to `CCCc1nc2c(C)cc(-c3nc4ccccc4n3C)cc2n1Cc1ccc(-c2ccccc2C(=O)O)cc1`, the LC retention time is 10.3 min.

On to `COCC(NC(C)=O)C(=O)NCc1ccccc1` (stereo unspecified), for which the LC retention time was 5.09 min.

With `CCc1cccc(C)c1N1C(=O)COCC1C` (stereo unspecified), the LC retention time was 7.89 min.

With `CCN1CCCC1CNC(=O)c1cc(S(N)(=O)=O)ccc1OC` (stereo unspecified), the LC retention time came out at 2.94 min.

Take `COc1ccc(Oc2ccc(NC(=O)N(C)C)cc2)cc1`: the LC retention time was determined as 8.43 min.

As to `CN1CCc2cccc3c2C1Cc1ccc(O)c(O)c1-3` (stereo unspecified), the LC retention time amounted to 4.28 min.

For the compound `CCN(CC)C(=O)C1C=C2c3cccc4[nH]cc(c34)CC2NC1` (stereo unspecified), the LC retention time was 5.56 min.

Take `CCCOC(=O)NCCCN(C)C`: the LC retention time stood at 3.5 min.

Consider `COC(=O)NC(=S)Nc1ccccc1NC(=S)NC(=O)OC`, for which the LC retention time is 6.93 min.

As to `CCn1nc(C(=O)O)c(=O)c2cc3c(cc21)OCO3`, the LC retention time turned out to be 5.32 min.

Consider `COc1ccc(C(=O)c2c(C)n(CCN3CCOCC3)c3ccccc23)cc1`, for which the LC retention time stood at 9.55 min.

For `O=C(OC1CN2CCC1CC2)N1CCc2ccccc2C1c1ccccc1` (stereo unspecified), the LC retention time was 7.95 min.

`CC(COc1ccccc1)NC(C)C(O)c1ccc(O)cc1` (stereo unspecified): the LC retention time was 5.28 min.

In the case of `Cc1cccc2n[nH]nc12`, the LC retention time worked out at 5.83 min.

For the compound `CC(C)Nc1nc(N)[nH]c(=O)n1`, the LC retention time was determined as 3.16 min.

`Cc1ccc(C(=O)c2cn(CCCCCO)c3ccccc23)c2ccccc12`: the LC retention time worked out at 10.6 min.

Regarding `CN(C)NC(=O)CCC(=O)O`, the LC retention time was 6.28 min.

For the compound `CC(CN(C)C)CN1c2ccccc2S(=O)(=O)c2ccccc21` (stereo unspecified), the LC retention time turned out to be 5.34 min.

For the compound `CCCCCn1nc(C(=O)c2cccc3ccccc23)c2ccccc21`, the LC retention time worked out at 13.1 min.

With `NC1CCc2cc3c(cc2C1)OCO3` (stereo unspecified), the LC retention time came to 4.32 min.

For the compound `CCCC(C(=O)c1ccc2ccccc2c1)N1CCCC1` (stereo unspecified), the LC retention time stood at 7.33 min.

As to `COc1cc(Cc2cnc(N)nc2N)cc(OC)c1OC`, the LC retention time was found to be 4.06 min.

With `CC(C)CN(CC(O)C(Cc1ccccc1)NC(=O)OC1COC2OCCC12)S(=O)(=O)c1ccc(N)cc1` (stereo unspecified), the LC retention time stood at 8.21 min.

Consider `CC(=O)Oc1c(C)cc(OCC(O)CNC(C)C)c(C)c1C` (stereo unspecified), for which the LC retention time came out at 6.28 min.
